According to article PMC7397336, “5-(4H)-Oxazolones and Their Benzamides as Potential Bioactive Small Molecules” (Molecules, 2020):

Assays:
[1] = Inhibition of linoleic acid lipid peroxidation (AAPH)
Description: Azo compounds, like AAPH, generating free radicals through spontaneous thermal decomposition are useful for in vitro studies of free radical production. Production of conjugated diene hydroperoxide by oxidation of sodium linoleate in an aqueous solution is monitored at 234 nm. This assay can be used to follow oxidative changes and to understand the contribution of each tested compound. […] It seems that the presence of moiety Ar (Scheme 1) is mainly correlated with the antioxidant result. The nature of the heteroatom O/S in Ar substituent in the 5-membered oxazolone ring (compounds 2c and 2e) influences the biological response. The replacement of the thienyl group in 2c by a furyl group (2e) leads to a 31% decrease of the antioxidant ability.
Each in vitro experiment was performed at least in triplicate and the standard deviation of absorbance was less than 10% of the mean. For the in vitro assays, a stock solution (1% DMSO in the appropriate buffer with the tested compound diluted under sonification) was prepared from which several dilutions were made with the appropriate buffer.
The AAPH-induced oxidation of linoleic acid measures the ability of an antioxidant to prevent oxidation of linoleic acid sodium salt induced by alkylperoxyl radicals, generated from the water soluble azo compound 2,2′-azobis(2-amidinopropane) dihydrochloride (AAPH). The assay was performed according to our previous publications. Trolox was used as reference compound.

mushroom tyrosinase = mushroom tyrosinase (Agaricus bisporus, UniProt C7FF04); assay: Tyrosinase inhibition assay; assay type: biochemical; settings: L-Dopa substrate; for inhibition at 100 µM: read-out: ΤyrI% 100 μM (inhibition of mushroom tyrosinase)
Sequence of mushroom tyrosinase (G1K3P4 entry or part of it): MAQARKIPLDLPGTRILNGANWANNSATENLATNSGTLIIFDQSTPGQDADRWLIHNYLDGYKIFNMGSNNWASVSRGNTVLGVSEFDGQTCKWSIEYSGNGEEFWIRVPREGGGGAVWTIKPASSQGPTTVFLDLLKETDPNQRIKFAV
Sequence of mushroom tyrosinase (C7FF04 1-392): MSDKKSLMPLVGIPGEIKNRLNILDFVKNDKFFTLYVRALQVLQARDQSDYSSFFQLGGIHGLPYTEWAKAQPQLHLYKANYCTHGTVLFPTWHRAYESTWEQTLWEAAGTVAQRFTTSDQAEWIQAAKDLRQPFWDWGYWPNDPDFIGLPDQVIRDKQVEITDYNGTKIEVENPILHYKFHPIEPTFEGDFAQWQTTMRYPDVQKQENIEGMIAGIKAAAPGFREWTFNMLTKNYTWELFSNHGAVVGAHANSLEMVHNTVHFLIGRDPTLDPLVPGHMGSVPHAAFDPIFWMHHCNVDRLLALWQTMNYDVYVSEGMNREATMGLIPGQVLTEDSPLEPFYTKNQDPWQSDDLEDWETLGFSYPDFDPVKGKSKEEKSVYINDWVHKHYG
Description: For the in vitro assays, a stock solution (1% DMSO in the appropriate buffer with the tested compound diluted under sonification) was prepared from which several dilutions were made with the appropriate buffer.

soybean lipoxygenase = biological target: T1, soybean lipoxygenase (Glycine max, UniProt P08170); assay: Soybean lipoxygenase inhibition study; assay type: biochemical; settings: for inhibition at 100 µM: read-out: LOX % inhibition 100 μM; for IC50: soybean lipoxygenase, sodium linoleate 0.1 mM, read-out: LOX IC50
T1 construct: purchased Sigma Chemical, Co. (St. Louis, MO, USA)
T1 sequence (P08170 1-839): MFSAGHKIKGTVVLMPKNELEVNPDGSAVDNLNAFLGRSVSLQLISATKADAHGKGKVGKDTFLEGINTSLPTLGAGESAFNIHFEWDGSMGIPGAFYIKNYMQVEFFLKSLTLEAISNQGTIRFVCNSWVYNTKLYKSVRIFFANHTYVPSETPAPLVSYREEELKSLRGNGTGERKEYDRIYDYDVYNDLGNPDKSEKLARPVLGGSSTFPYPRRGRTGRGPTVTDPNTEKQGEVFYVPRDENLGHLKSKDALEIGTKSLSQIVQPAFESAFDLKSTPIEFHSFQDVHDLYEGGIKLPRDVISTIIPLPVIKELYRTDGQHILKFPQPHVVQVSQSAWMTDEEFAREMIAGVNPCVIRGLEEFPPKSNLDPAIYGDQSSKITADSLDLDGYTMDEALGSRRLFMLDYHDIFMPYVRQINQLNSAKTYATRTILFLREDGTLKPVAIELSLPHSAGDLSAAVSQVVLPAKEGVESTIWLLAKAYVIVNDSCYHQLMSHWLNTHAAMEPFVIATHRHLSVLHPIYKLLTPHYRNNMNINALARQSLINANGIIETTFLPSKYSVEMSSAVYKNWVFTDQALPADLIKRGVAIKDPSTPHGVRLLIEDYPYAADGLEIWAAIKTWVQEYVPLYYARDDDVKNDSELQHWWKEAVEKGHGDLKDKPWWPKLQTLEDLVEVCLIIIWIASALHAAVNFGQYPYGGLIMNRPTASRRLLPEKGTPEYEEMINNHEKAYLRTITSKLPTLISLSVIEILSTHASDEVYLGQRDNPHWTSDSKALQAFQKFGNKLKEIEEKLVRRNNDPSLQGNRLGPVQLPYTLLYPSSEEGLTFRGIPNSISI
Description: For the in vitro assays, a stock solution (1% DMSO in the appropriate buffer with the tested compound diluted under sonification) was prepared from which several dilutions were made with the appropriate buffer. DMSO solution of the tested compound (stock solutions 10 mM) was incubated with sodium linoleate (0.1 mM) and 0.2 mL of soybean lipoxygenase solution (1/9 × 10^−4 w/v in saline) at room temperature. The test follows our previous published methods. […] Several concentrations were used to determine the IC50.

ΤyrI% 100 μM (inhibition of mushroom tyrosinase) (mushroom tyrosinase)	LOX % inhibition 100 μM (soybean lipoxygenase; 100 µM)	inhibition at 100 µM (mushroom tyrosinase)	melting point	LOX % inhibition 100 μM (soybean lipoxygenase; 100 μM)	inhibition at 100 µM (soybean lipoxygenase; 100 µM)	IC50 (soybean lipoxygenase)	Structure (SMILES)	AAPH% 100 µM (anti-lipid peroxidation) [1]
		28%	282 to 284 °C			65 µM	O=C(N/C(=C\c1cccc2ccccc12)C(=O)N1CCN(C(=O)/C(=C/c2cccc3ccccc23)NC(=O)c2ccccc2)CC1)c1ccccc1 [Compound 4d, N,N′-((1Z,1′Z)-piperazine-1,4-diylbis(1-(naphthalen-1-yl)-3-oxoprop-1-ene-3,2-diyl))bisbenzamide]	90%
		12%	285 to 286 °C			85 µM	O=C(N/C(=C\c1ccc(OCc2ccc(Br)cc2)cc1)C(=O)N1CCN(C(=O)/C(=C/c2ccc(OCc3ccc(Br)cc3)cc2)NC(=O)c2ccccc2)CC1)c1ccccc1 [Compound 4b, N,N′-((1Z,1′Z)-piperazine-1,4-diylbis(1-(4-((4-bromobenzyl)oxy)phenyl)-3-oxoprop-1-ene-3,2-diyl))-bis-benzamide]	99%
		5%	156 to 159 °C	36%	< 50%		CCOC(=O)/C(=C/c1cccs1)NC(=O)c1ccccc1 [Compound 6c, (Z)-Ethyl 2-benzamido-3-(thiophen-2-yl)acrylate]	59%
		17%	293 to 295 °C			88 µM	O=C(N/C(=C\c1ccco1)C(=O)N1CCN(C(=O)/C(=C/c2ccco2)NC(=O)c2ccccc2)CC1)c1ccccc1 [Compound 4e, N,N′-((1Z,1′Z)-piperazine-1,4-diylbis(1-(furan-2-yl)-3-oxoprop-1-ene-3,2-diyl))bisbenzamide]	83%

Continued, molecule first:

Structure (SMILES)	ΤyrI% 100 μM (inhibition of mushroom tyrosinase) (mushroom tyrosinase)	LOX % inhibition 100 μM (soybean lipoxygenase; 100 µM)	inhibition at 100 µM (mushroom tyrosinase)	melting point	LOX % inhibition 100 μM (soybean lipoxygenase; 100 μM)	inhibition at 100 µM (soybean lipoxygenase; 100 µM)	IC50 (soybean lipoxygenase)	AAPH% 100 µM (anti-lipid peroxidation) [1]
O=C1OC(c2ccccc2)=N/C1=C\c1ccccc1 [Compound 2a, (Z)-4-Benzylidene-2-phenyloxazol-5(4H)-one]	no	no						95%
O=C1OC(c2ccccc2)=N/C1=C\c1cccc2ccccc12 [Compound 2d, (Z)-4-(Naphthalen-1-ylmethylene)-2-phenyloxazol-5(4H)-one]			5%	169 to 171 °C	49%	< 50%		81%
O=C(N/C(=C\c1cccc2ccccc12)C(=O)N1CCOCC1)c1ccccc1 [Compound 3d, (Z)-N-(3-morpholino-1-(naphthalen-1-yl)-3-oxoprop-1-en-2-yl)benzamide]				135 to 137 °C	37%	< 50%		91%
O=C1OC(c2ccccc2)=N/C1=C\c1ccc(Oc2ccccc2)cc1 [Compound 2f, (Z)-4-(4-Phenoxybenzylidene)-2-phenyloxazol-5(4H)-one]		no		169 °C				no
Cc1c(C)c2c(c(C)c1O)CCC(C)(C(=O)O)O2 (stereo not shown) [Trolox, reference compound]								93%
O=C1OC(c2ccccc2)=N/C1=C\c1cccs1 [Compound 2c, (Z)-2-Phenyl-4-(thiophen-2-ylmethylene)oxazol-5(4H)-one]		no	16%					91%
O=C(N/C(=C\c1cccs1)C(=O)N1CCOCC1)c1ccccc1 [Compound 3c, (Z)-N-(3-morpholino-3-oxo-1-(thiophen-2-yl)prop-1-en-2-yl)benzamide]			7%	184 to 186 °C	39%	< 50%		93%
O=C1OC(c2ccccc2)=N/C1=C\c1ccco1 [Compound 2e, (Z)-4-(Furan-2-ylmethylene)-2-phenyloxazol-5(4H)-one]			3%					60%
